# Measured values published in patent US9707243B2, “Topical composition with vitamin D3” (priority 2014, dated 2017).
# Assay: Randomized control study of daily topical application in women with low vitamin D
# Type: in vivo, human
# Conditions: 3 months
# Method: A study was carried out on 50 women with low vitamin D. The women were healthy and unmarried. Age, weight, height, and detailed medical history were recorded. Meticulous clinical examination was performed to rule out any diseases. A complete blood picture, including serum calcium, phosphorous, alkaline phosphatase, Parathormone and 25 Hydroxy-vitamin D (25OHD), was obtained. Two women had >30 ng/mL of 25OHD and were excluded from the study. The 25-Hydroxy Vitamin D3 level was measured in house by chemiluminescence immunoassay (CLIA), and 30 ng/mL was taken as normal, 21-29 ng/mL as insufficiency and 20 ng/mL as deficiency.
# The participants were divided into two groups of 24 women each. All participants unequivocally agreed not to change their dietary habits and life style until the study was over. The group of women participating in the study were asked to apply the topical composition with Vitamin D3. Each gram of the composition delivered 5000 IU of vitamin D3. The second group used 1 gram of aloe vera gel. The participants had no knowledge to which group they belong. A second blood sample was taken at the end of 3 months, and the data was entered in the database and analyzed using a t-test to compare means between the two groups for all the parameters tested before and after topical use of VD and AVG. […]
structure (smiles),measurement,value
"C=C1CC[C@H](O)C/C1=C/C=C1\CCC[C@]2(C)[C@@H]([C@H](C)CCCC(C)C)CC[C@@H]12 [Vitamin D3, cholecalciferol]",safety of delivery through the dermal route,can safely be delivered through the dermal route
